Experimental data from ChEMBL document CHEMBL1140860, “Synthesis and evaluation of dihydroartemisinin and dihydroartemisitene acetal dimers showing anticancer and antiprotozoal activity” (Bioorg Med Chem, 2009).

How the values were obtained:
[1] = Selectivity index, ratio of TC50 for african green monkey (Cercopithecus aethiops) Vero cells to IC50 for chloroquine-resistant Plasmodium falciparum W2; assay type: toxicity, cell-based
[2] = system: SR; experiment: Growth inhibition of human SR cells after 48 hrs by sulforhodamine B assay; assay type: functional
[3] = system: ACHN; experiment: Growth inhibition of human ACHN cells after 48 hrs by sulforhodamine B assay; assay type: functional
[4] = system: M14; experiment: Growth inhibition of human M14 cells after 48 hrs by sulforhodamine B assay; assay type: functional; settings: M14, 48 h
[5] = system: CCRF-CEM; experiment: Growth inhibition of human CCRF-CEM cells after 48 hrs by sulforhodamine B assay; assay type: functional
[6] = system: SK-MEL-5; experiment: Growth inhibition of human SK-MEL-5 cells after 48 hrs by sulforhodamine B assay; assay type: functional; settings: SK-MEL-5, 48 h
[7] = system: Plasmodium falciparum; experiment: Antimalarial activity after 72 hrs against chloroquine-resistant Plasmodium falciparum W2 infected erythrocytes by LDH assay; assay type: functional, organism-based; settings: W2, 72 h
[8] = system: OVCAR-3; experiment: Growth inhibition of human OVCAR-3 cells after 48 hrs by sulforhodamine B assay; assay type: functional; settings: OVCAR-3, 48 h
[9] = system: EKVX; experiment: Growth inhibition of human EKVX cells after 48 hrs by sulforhodamine B assay; assay type: functional
[10] = system: MCF7; experiment: Growth inhibition of human MCF7 cells after 48 hrs by sulforhodamine B assay; assay type: functional; settings: MCF7, 48 h
[11] = system: OVCAR-8; experiment: Growth inhibition of human OVCAR8 cells after 48 hrs by sulforhodamine B assay; assay type: functional; settings: OVCAR-8, 48 h
[12] = system: UO-31; experiment: Growth inhibition of human UO31 cells after 48 hrs by sulforhodamine B assay; assay type: functional; settings: UO-31, 48 h
[13] = system: NCI-H23; experiment: Growth inhibition of human NCI-H23 cells after 48 hrs by sulforhodamine B assay; assay type: functional; settings: NCI-H23, 48 h
[14] = system: PC-3; experiment: Growth inhibition of human PC3 cells after 48 hrs by sulforhodamine B assay; assay type: functional; settings: PC-3, 48 h
[15] = system: MOLT-4; experiment: Growth inhibition of human MOLT4 cells after 48 hrs by sulforhodamine B assay; assay type: functional; settings: MOLT-4, 48 h
[16] = system: SK-MEL-2; experiment: Growth inhibition of human SK-MEL-2 cells after 48 hrs by sulforhodamine B assay; assay type: functional; settings: SK-MEL-2, 48 h
[17] = system: Malme-3M; experiment: Growth inhibition of human MALME-3M cells after 48 hrs by sulforhodamine B assay; assay type: functional
[18] = system: NCI-H322M; experiment: Growth inhibition of human NCI-H322M cells after 48 hrs by sulforhodamine B assay; assay type: functional
[19] = system: SF-268; experiment: Growth inhibition of human SF268 cells after 48 hrs by sulforhodamine B assay; assay type: functional; settings: SF-268, 48 h
[20] = system: NCI/ADR-RES; experiment: Growth inhibition of human NCI/ADR-RES cells after 48 hrs by sulforhodamine B assay; assay type: functional
[21] = system: HT-29; experiment: Growth inhibition of human HT-29 cells after 48 hrs by sulforhodamine B assay; assay type: functional; settings: HT-29, 48 h
[22] = system: SK-OV-3; experiment: Growth inhibition of human SKOV3 cells after 48 hrs by sulforhodamine B assay; assay type: functional; settings: SK-OV-3, 48 h
[23] = system: TK-10; experiment: Growth inhibition of human TK10 cells after 48 hrs by sulforhodamine B assay; assay type: functional; settings: TK-10, 48 h
[24] = system: CAKI-1; experiment: Growth inhibition of human Caki1 cells after 48 hrs by sulforhodamine B assay; assay type: functional; settings: CAKI-1, 48 h
[25] = system: HOP-92; experiment: Growth inhibition of human HOP92 cells after 48 hrs by sulforhodamine B assay; assay type: functional; settings: HOP-92, 48 h
[26] = system: SNB-75; experiment: Growth inhibition of human SNB75 cells after 48 hrs by sulforhodamine B assay; assay type: functional; settings: SNB-75, 48 h
[27] = system: UACC-62; experiment: Growth inhibition of human UACC62 cells after 48 hrs by sulforhodamine B assay; assay type: functional; settings: UACC-62, 48 h
[28] = system: SK-MEL-28; experiment: Growth inhibition of human SK-MEL-28 cells after 48 hrs by sulforhodamine B assay; assay type: functional; settings: SK-MEL-28, 48 h
[29] = system: OVCAR-4; experiment: Growth inhibition of human OVCAR4 cells after 48 hrs by sulforhodamine B assay; assay type: functional; settings: OVCAR-4, 48 h
[30] = system: SW-620; experiment: Growth inhibition of human SW620 cells after 48 hrs by sulforhodamine B assay; assay type: functional; settings: SW-620, 48 h
[31] = system: KM12; experiment: Growth inhibition of human KM12 cells after 48 hrs by sulforhodamine B assay; assay type: functional; settings: KM12, 48 h
[32] = system: T47D; experiment: Growth inhibition of human T47D cells after 48 hrs by sulforhodamine B assay; assay type: functional
[33] = system: NCI-H460; experiment: Growth inhibition of human NCI-H460 cells after 48 hrs by sulforhodamine B assay; assay type: functional; settings: NCI-H460, 48 h
[34] = system: RXF 393; experiment: Growth inhibition of human RXF393 cells after 48 hrs by sulforhodamine B assay; assay type: functional; settings: RXF 393, 48 h
[35] = system: COLO 205; experiment: Growth inhibition of human COLO205 cells after 48 hrs by sulforhodamine B assay; assay type: functional; settings: COLO 205, 48 h
[36] = system: UACC-257; experiment: Growth inhibition of human UACC257 cells after 48 hrs by sulforhodamine B assay; assay type: functional; settings: UACC-257, 48 h
[37] = system: LOX IMVI; experiment: Growth inhibition of human LOXIMVI cells after 48 hrs by sulforhodamine B assay; assay type: functional
[38] = system: HCC 2998; experiment: Growth inhibition of human HCC2998 cells after 48 hrs by sulforhodamine B assay; assay type: functional; settings: HCC 2998, 48 h
[39] = system: HOP-62; experiment: Growth inhibition of human HOP62 cells after 48 hrs by sulforhodamine B assay; assay type: functional; settings: HOP-62, 48 h
[40] = system: U-251; experiment: Growth inhibition of human U251 cells after 48 hrs by sulforhodamine B assay; assay type: functional; settings: U-251, 48 h
[41] = system: IGROV-1; experiment: Growth inhibition of human IGROV1 cells after 48 hrs by sulforhodamine B assay; assay type: functional; settings: IGROV-1, 48 h
[42] = Selectivity index, ratio of TC50 for african green monkey (Cercopithecus aethiops) Vero cells to IC50 for chloroquine-sensitive Plasmodium falciparum D6; assay type: toxicity, cell-based
[43] = system: HL-60; experiment: Growth inhibition of human HL-60(TB) cells after 48 hrs by sulforhodamine B assay; assay type: functional; settings: HL-60, 48 h
[44] = system: K562; experiment: Growth inhibition of human K562 cells after 48 hrs by sulforhodamine B assay; assay type: functional; settings: K562, 48 h
[45] = system: MDA-N; experiment: Growth inhibition of human MDA-N cells after 48 hrs by sulforhodamine B assay; assay type: functional
[46] = system: HCT-116; experiment: Growth inhibition of human HCT116 cells after 48 hrs by sulforhodamine B assay; assay type: functional; settings: HCT-116, 48 h
[47] = system: MDA-MB-231; experiment: Growth inhibition of human MDA-MB-231 cells after 48 hrs by sulforhodamine B assay; assay type: functional; settings: MDA-MB-231, 48 h
[48] = Cytotoxicity against african green monkey Vero cells after 48 hrs by neutral red assay; assay type: cell-based; settings: chlorocebus sabaeus, read-out: TC50
[49] = system: SN12C; experiment: Growth inhibition of human SN12C cells after 48 hrs by sulforhodamine B assay; assay type: functional
[50] = system: NCI-H226; experiment: Growth inhibition of human NCI-H226 cells after 48 hrs by sulforhodamine B assay; assay type: functional; settings: NCI-H226, 48 h
[51] = system: BT-549; experiment: Growth inhibition of human BT549 cells after 48 hrs by sulforhodamine B assay; assay type: functional; settings: BT-549, 48 h
[52] = system: A549; experiment: Growth inhibition of human A549 cells after 48 hrs by sulforhodamine B assay; assay type: functional; settings: A549, 48 h
[53] = system: A498; experiment: Growth inhibition of human A498 cells after 48 hrs by sulforhodamine B assay; assay type: functional; settings: A498, 48 h
[54] = system: NCI-H522; experiment: Growth inhibition of human NCI-H522 cells after 48 hrs by sulforhodamine B assay; assay type: functional; settings: NCI-H522, 48 h
[55] = system: 786-0; experiment: Growth inhibition of human 786-0 cells after 48 hrs by sulforhodamine B assay; assay type: functional; settings: 786-0, 48 h
[56] = system: HCT-15; experiment: Growth inhibition of human HCT15 cells after 48 hrs by sulforhodamine B assay; assay type: functional; settings: HCT-15, 48 h
[57] = Growth inhibition of human Hs 578T cells after 48 hrs by sulforhodamine B assay; assay type: functional
[58] = system: SNB-19; experiment: Growth inhibition of human SNB19 cells after 48 hrs by sulforhodamine B assay; assay type: functional; settings: SNB-19, 48 h
[59] = Growth inhibition of human […] cells after 48 hrs by sulforhodamine B assay; assay type: functional
[60] = system: OVCAR-5; experiment: Growth inhibition of human OVCAR5 cells after 48 hrs by sulforhodamine B assay; assay type: functional; settings: OVCAR-5, 48 h
[61] = system: Plasmodium falciparum; experiment: Antimalarial activity after 72 hrs against chloroquine-sensitive Plasmodium falciparum D6 infected in erythrocytes by LDH assay; assay type: functional, organism-based; settings: D6, 72 h
[62] = system: MDA-MB-435; experiment: Growth inhibition of human MDA-MB-435 cells after 48 hrs by sulforhodamine B assay; assay type: functional; settings: MDA-MB-435, 48 h

C[C@H]1[C@H](OCCCCO[C@H]2O[C@@H]3O[C@@]4(C)CC[C@H]5[C@H](C)CC[C@@H]([C@H]2C)[C@@]35OO4)O[C@@H]2O[C@@]3(C)CC[C@H]4[C@H](C)CC[C@@H]1[C@@]24OO3
selectivity ratio [1]: > 54 | GI50 [2]: < 5 nM | GI50 [3]: 31 nM | GI50 [4]: 148 nM | GI50 [5]: 15 nM | GI50 [6]: 115 nM | IC50 [7]: 14100 nM | GI50 [8]: 203 nM | GI50 [9]: 44 nM | GI50 [10]: 43 nM | GI50 [11]: 47 nM | GI50 [12]: 22 nM | GI50 [13]: 20 nM | GI50 [14]: 11 nM | GI50 [15]: 8 nM | GI50 [16]: 318 nM | GI50 [17]: 353 nM | GI50 [18]: 16000 nM | GI50 [19]: 5620 nM | GI50 [20]: 214 nM | GI50 [21]: 15 nM | GI50 [22]: 7210 nM | GI50 [23]: 23 nM | GI50 [24]: 6560 nM | GI50 [25]: 6400 nM | GI50 [26]: 8050 nM | GI50 [27]: 215 nM | GI50 [28]: 8820 nM | GI50 [29]: 148 nM | GI50 [30]: 16 nM | GI50 [31]: 12 nM | GI50 [32]: < 5 nM | GI50 [33]: 4230 nM | GI50 [34]: 9800 nM | GI50 [35]: 12 nM | GI50 [36]: 69 nM | GI50 [37]: 8 nM | GI50 [38]: 365 nM | GI50 [39]: 42000 nM | GI50 [40]: 25 nM | GI50 [41]: 381 nM | selectivity ratio [42]: 43 | GI50 [43]: 12 nM | GI50 [44]: 12 nM | GI50 [45]: 58 nM | GI50 [46]: 10 nM | GI50 [47]: 5070 nM | CC50 at 48 h [48]: > 764000 nM | GI50 [49]: 210 nM | GI50 [50]: 34 nM | GI50 [51]: 220 nM | GI50 [52]: 35 nM | GI50 [53]: 5770 nM | GI50 [54]: 16 nM | GI50 [55]: 107 nM | GI50 [56]: 7 nM | GI50 [57]: 133 nM | GI50 [58]: 869 nM | GI50 [59]: < 5 nM | GI50 [60]: 65 nM | IC50 [61]: 17700 nM | GI50 [62]: 18 nM
